Measured values from patent US20160008627A1, “METHODS AND DEVICES FOR VISIBLE LIGHT MODULATION OF MITOCHONDRIAL FUNCTION IN HYPOXIA AND DISEASE” (Clarimedix Inc., priority 2008, published 2016).
Like-named read-outs stand apart in the source and are kept apart here. Values belong to the compound of their own block, whether it stands above or below them.

Experiments:
mitochondrial Cco = biological target: T1, mitochondrial Cco (Mus musculus, UniProt P00397); experiment: Cco/NO activity (nitrite-dependent NO synthesis) in cerebrum mitochondria, NO electrode; format: biochemical; settings: hypoxic conditions, ascorbate/TMPD as electron donor pair, cerebrum mitochondria of 7-12 day old mice
T1 construct: These experiments used mitochondria isolated from the cerebrum of 7-12 day old mice; from tissue; host or cells: mitochondria from mouse cerebrum (7-12 day old mice)
Text: We have studied Cco/NO activity in both human endothelial cells and mouse brain nervous tissue. All of the assays for Cco/NO activity were done in a closed chamber, as described elsewhere (Castello et al. 2006, Cell Metabolism 3, 277-287). Cells or mitochondria were allowed to respire and consume oxygen all of the oxygen in the chamber before the addition of nitrite, which initiated the reaction.
Results with mouse nerve cells. These experiments used mitochondria isolated from the cerebrum of 7-12 day old mice. Using the same assay we used for endothelial cell mitochondria, we assayed Cco/NO activity under hypoxic conditions with ascorbate/TMPD as an electron donor pair. […] To confirm that we had measured NO synthesis we added PTIO, an NO scavenger.

yeast cells = settings: 1 mM nitrite, light 3 doses of 6.4 J/cm^2
Text: The effects of broad spectrum light on the expression of the nuclear COX genes for Cco and the overall level of cellular respiration were examined. Because cytochrome c oxidase is a major regulator of respiration and because the nuclear genes (COX) for cytochrome c oxidase are highly regulated by a variety of environmental factors and function to regulate the overall activity of Cco, their level of expression provides a useful measure for the long-term effects of light on Cco. Similarly, the rate of respiration per se provides a direct measure of the effects of light on the entire respiratory chain.
Yeast cells were grown in liquid media for three hours, which is equivalent to the time it takes for one cell division. […]
Light from a Broadband 50 watt Xenon/Halogen Floodlight was administered at the beginning of each hour for a total of 3 doses, each at 6.4 J/cm^2 (105 mW/cm^2). After 3 hours, cells were harvested and analyzed for measurement of gene expression (by quantitiative PCR), or respiration (by polarographic oxygen consumption). qPCR was performed with primers designed for COX of Cco subunits COX4, COX5a, COX5b, COX6, and COX8. Each sample was run in duplicate and gene expression was quantified by normalizing to PMAI, a yeast gene that is expressed at constant levels, irrespective of the environment in which cells are grown.

NT2 cells = experiment: Oxidative stress induced APP processing in NT2 cells; format: cell-based; settings: for APP processing as assessed by Aβ1-42 production: FIG. 17
Text: Broadband light reverses oxidative stress induced APP processing to Aβ1-42. […] Broad band light (7.5 Joules total dose) reversed the oxidative stress affects back to control levels (FIG. 17).
Broadband light reverses oxidative stress induced APP processing to Aβ1-40. […] Broad band light (7.5 Joules total dose) reversed the oxidative stress affects back to control levels (FIG. 18).

Removal of the NO produced by mitochondrial Cco (NO scavenger) (mitochondrial Cco): completely removes the NO produced
SMILES: CC1(C)N([O])C(c2ccccc2)=[N+]([O-])C1(C)C [PTIO]

SMILES: O=NO [+Nitrite, nitrite]
Oxygen Consumption (yeast cells; Hypoxia (1% O2)): 14.27 ± 0.26 nmol/min/mg cells
Oxygen Consumption (yeast cells; Normoxia): 15.21 ± 0.47 nmol/min/mg cells

SMILES: CCCCCC(O)/C=C/C=O (stereo not drawn) [FINE]
APP processing as assessed by Aβ1-42 production (NT2 cells): dramatic increases
APP processing as assessed by Aβ1-40 production (NT2 cells; FIG. 18): dramatic increases

SMILES: OO [H2O2]
APP processing as assessed by Aβ1-42 production (NT2 cells): dramatic increases
